Data from US10695321B2, “Use of glycopyrrolate for treating tachycardia” (Heptares Therapeutics Limited, priority 2011, dated 2020).

Assay: Sealed storage of micronised glycopyrrolate batches, physical changes and repeated particle sizing
Format: physicochemical
Settings: sealed storage for several weeks
Text: Batches of micronised glycopyrrolate were obtained and, following sealed storage for several weeks, the physical changes of the material from fine cohesive powders to solid agglomerates were observed.
The following section summarises the tests conducted on reported batches of glycopyrrolate received following micronisation: […]

SMILES	Physical state of powder on storage	d50 on repeated particle sizing on storage (micronised powder)
C[N+]1(C)CCC(OC(=O)C(O)(c2ccccc2)C2CCCC2)C1 (centres unmarked) [Remicronised Batch C, glycopyrrolate]	only soft lumps of material were found in bulk powder	–
C[N+]1(C)CCC(OC(=O)C(O)(c2ccccc2)C2CCCC2)C1 (centres unmarked) [Batch A, glycopyrrolate]	soft lumps of material were found in bulk powder	–
C[N+]1(C)CCC(OC(=O)C(O)(c2ccccc2)C2CCCC2)C1 (centres unmarked) [Batch B, glycopyrrolate]	large hard lumps of material were found	–
C[N+]1(C)CCC(OC(=O)C(O)(c2ccccc2)C2CCCC2)C1 (centres unmarked) [Batch C, glycopyrrolate]	large hard lumps of material were found in bulk powder	51 μm
